Like-named read-outs stand apart in the source and are kept apart here.
Tests used:
Assay in all cases: Greenhouse test, pre-emergence treatment
ELEIN = format: in vivo, Eleusine indica
From the text: (§1) The culture containers used were plastic flowerpots containing loamy sand with approximately 3.0% of humus as the substrate. The seeds of the test plants were sown separately for each species.
(§2) For the pre-emergence treatment, the active ingredients, which had been suspended or emulsified in water, were applied directly after sowing by means of finely distributing nozzles. The containers were irrigated gently to promote germination and growth and subsequently covered with transparent plastic hoods until the plants had rooted. This cover caused uniform germination of the test plants, unless this had been impaired by the active ingredients.
(§3) Depending on the species, the plants were kept at 10-25° C. or 20-35° C., respectively.
(§4) The test period extended over 2 to 4 weeks. During this time, the plants were tended, and their response to the individual treatments was evaluated.
(§5) Evaluation was carried out using a scale from 0 to 100. 100 means no emergence of the plants, or complete destruction of at least the aerial moieties, and 0 means no damage, or normal course of growth. A moderate herbicidal activity is given at values of at least 60, a good herbicidal activity is given at values of at least 70, and a very good herbicidal activity is given at values of at least 85.
(§6) The respective stated components a and b, and if appropriate, c were formulated as a 10% by weight strength emulsion concentrate and, with addition of the amount of solvent system, introduced into the spray liquor used for applying the active compound.
(§7) In the examples, the solvent used was water.
(§8) In the examples below, using the method of S. R. Colby (1967) “Calculating synergistic and antagonistic responses of herbicide combinations”, Weeds 15, p. 22ff., the value E, which is expected if the activity of the individual active compounds is only additive, was calculated. E=X+Y−(X·Y/100) where • X=percent activity using active compound a at an application rate A; • Y=percent activity using active compound b at an application rate B; • E=expected activity (in %) by a+b at application rates A+B.
(§9) If the value found experimentally is higher than the value E calculated according to Colby, a synergistic effect is present.

SIDRH = format: in vivo, Sida rhombifolia; settings: pre-emergence
Summary of the method: (§10)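 Seeds were sown in loamy sand with about 3.0% humus, and compounds in water were sprayed immediately after sowing, alone or as combinations formulated as 10% emulsion concentrates. Plants grew under hoods until rooted, at 10-25 °C or 20-35 °C by species, for 2 to 4 weeks. Damage was scored 0-100 (100 = no emergence or complete destruction), and Colby expected values were E=X+Y−(X·Y/100).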

CENCY [1] = format: in vivo
ERICA [2] = format: in vivo; settings: 480 h, read-out: observed % activity 20 DAT
ABUTH = format: in vivo, Abutilon theophrasti; settings: Abutilon theophrasti, 480 h, read-out: observed % activity 20 DAT
Summary of the method: as §10

ERICA [3] = format: in vivo, Erigeron canadensis
DIGSA [4] = format: in vivo, Digitaria sanguinalis; settings: 4 g ai/ha
CENCY [5] = format: in vivo, Centaurea cyanus
CENCY [6] = format: in vivo; settings: individual
SETVI = format: in vivo, Setaria viridis
From the text: as §1, §2, §3, §4, §5, §6, §7, §8, §9

DIGSA [7] = format: in vivo; settings: Digitaria sanguinalis, 480 h, read-out: observed % activity 20 DAT
[8] = Sida rhombifolia, 480 h, 8 g ai/ha, read-out: observed % activity 20 DAT

Compound: Nc1nc(Nc2c(F)c(F)cc(F)c2F)nc(C2(F)CCCC2)n1 [compound 9, 6-(1-fluorocyclopentyl)-N4-(2,3,5,6-tetrafluorophenyl)-1,3,5-triazine-2,4-diamine]
- observed % activity 20 DAT (ELEIN; 2 g ai/ha): 95%
- inhibition at 2 g/ha (ELEIN; Eleusine indica, 480 h, 2 g ai/ha, read-out: observed % activity 20 DAT): 95%
- inhibition at 4 g/ha (ELEIN; Eleusine indica, 480 h, 4 g ai/ha, read-out: observed % activity 20 DAT): 98%
- observed % activity 20 DAT (SIDRH; SIDRH, individual, use rate 8 g ai/ha): 15%
- observed % activity 20 DAT (SIDRH; SIDRH, individual, use rate 16 g ai/ha): 55%
- pest or weed control at 4 g/ha (SIDRH; Sida rhombifolia, 480 h, 4 g ai/ha, read-out: observed % activity 20 DAT): 10%
- pest or weed control at 8 g/ha (SIDRH; [8]): 10%
- inhibition at 8 g/ha (SIDRH; Sida rhombifolia, 480 h, SIDRH, individual, use rate 8 g ai/ha, read-out: observed % activity 20 DAT): 25%
- inhibition at 8 g/ha (SIDRH; [8]): 25%
- inhibition at 16 g/ha (SIDRH; Sida rhombifolia, 480 h, 16 g ai/ha, read-out: observed % activity 20 DAT): 30%
- observed % activity 20 DAT (CENCY [1]; 8 g ai/ha): 35%
- inhibition at 4 g/ha (CENCY [1]; 480 h, 4 g ai/ha, read-out: observed % activity 20 DAT): 40%
- inhibition at 8 g/ha (CENCY [1]; 480 h, 8 g ai/ha, read-out: observed % activity 20 DAT): 20%
- inhibition at 16 g/ha (CENCY [1]; 480 h, 16 g ai/ha, read-out: observed % activity 20 DAT): 10%
- inhibition at 4 g/ha (ERICA [2]; 4 g ai/ha): 98%
- inhibition at 8 g/ha (ERICA [2]; 8 g ai/ha): 98%
- pest or weed control at 4 g/ha (ABUTH; 4 g ai/ha): 55%
- inhibition at 8 g/ha (ABUTH; 8 g ai/ha): 20%
- pest or weed control at 8 g/ha (ABUTH; 8 g ai/ha): 40%
- inhibition at 16 g/ha (ABUTH; 16 g ai/ha): 20%
- inhibition at 8 g/ha (ABUTH; ABUTH, individual, use rate 8 g ai/ha): 20%
- inhibition at 16 g/ha (ABUTH; ABUTH, individual, use rate 16 g ai/ha): 20%
- observed % activity 20 DAT (ERICA [3]; 4 g ai/ha): 98%
- observed % activity 20 DAT (ERICA [3]; 8 g ai/ha): 98%
- observed % activity 20 DAT (DIGSA [4]): 80%
- observed % activity 20 DAT (CENCY [5]; 4 g ai/ha): 40%
- observed % activity 20 DAT (CENCY [5]; 8 g ai/ha): 20%
- inhibition at 8 g/ha (CENCY [6]; 480 h, use rate 8 g ai/ha, read-out: observed % activity 20 DAT): 20%
- inhibition at 16 g/ha (CENCY [6]; 480 h, use rate 16 g ai/ha, read-out: observed % activity 20 DAT): 15%
- observed % activity 20 DAT (CENCY [6]; use rate 8 g ai/ha): 35%
- observed % activity 20 DAT (SETVI; 2 g ai/ha): 90%
- observed % activity 20 DAT (SETVI; 4 g ai/ha): 90%
- inhibition at 2 g/ha (SETVI; Setaria viridis, 480 h, 2 g ai/ha, read-out: observed % activity 20 DAT): 70%
- inhibition at 4 g/ha (SETVI; Setaria viridis, 480 h, 4 g ai/ha, read-out: observed % activity 20 DAT): 80%
- inhibition at 2 g/ha (DIGSA [7]; 2 g ai/ha): 75%
- inhibition at 4 g/ha (DIGSA [7]; 4 g ai/ha): 60%
